{"source": "patent US20120052544A1", "about": "“E[…] CELLS WITH PSORALENS” (priority 2010, published 2012)", "key": {"[1]": {"system": "Xenopus eggs", "test": "Enucleation of Xenopus eggs with psoralen and long-wave UV light, then fertilization", "type": "cell-based", "conditions": "for Chromosome Number (Mean ± SD): embryos from eggs treated with psoralen + long-wave UV before fertilization, diploid control 36"}, "[2]": {"system": "HeLa cells", "test": "Effect of psoralen+UV treatment on growth of HeLa cells"}, "[3]": {"system": "primary MEFs", "procedure": "(§1) Feeder Cell Enucleation. […] Cells were irradiated from above for 30-60 seconds with a 4 W UVGL-25 Mineralite (UVP) using the long-wave setting, holding the lamp as close as possible to the brim of the culture dish with the lid removed. After irradiation cells were washed with PBS. H7/WA07 hESCs (National Stem Cell Bank) were plated on primary MEFs 24 hours later. These MEFs were between passages 2 and 5. For keratinocytes precursor cell culture, the MEFS were trypsinized immediately after treatment and plated with CIN612 cells.\nHuman embryonic stem cells (hESCs) require a feeder layer of mouse embryonic fibroblasts (MEFs) to grow in culture (Thomson et al., 1998). […] The ability of MEFs to support hESC growth declines with time (VIIIa-Diaz et al., 2009)."}, "[4]": {"system": "Mouse eggs", "conditions": "cultured four days", "procedure": "(§2) Eggs from super-ovulated mice were irradiated for 30 seconds with a handheld 4W UV lamp in the presence of 4-6 μM AMT, then parthenogenetically activated with strontium chloride and cultured in vitro for four days. […] In mouse embryos, however, checkpoints are active during the early cleavage divisions (Liu et al., 2000b; Takai et al., 2000)."}, "[5]": {"system": "Xenopus sperm", "procedure": "(§3) Sperm Enucleation. A small piece of fresh Xenopus testis was macerated with forceps, resuspended in 1×MMR containing 1-50 μM AMT, then filtered through a […] cell strainer (Falcon). The sperm suspension was spread onto a Petri dish then irradiated as described above and used immediately to fertilize fresh eggs. Mouse epididymal sperm were isolated in HTF medium (Quinn, 2000) and not filtered before irradiation.\nKaryotype Analysis. Karyotype analysis was performed using a modified protocol (http:// followed “by faculty.virginia.edu/xtropicalis/KaryotypeXtropicalis.htm”). […] tailbud embryos were incubated in 0.1×MMR containing 10 μM nocodazole for 1-3 hours. The tailbud was bluntly dissected off with sharp needles, incubated in 60% acetic acid for 5 minutes, and squashed onto a Superfrost Plus microscope slide (V WR Scientific) under a coverslip and a lead brick. After 5 minutes, the slide was quick-frozen on a cake of dry ice, the coverslip was prized off with a razor blade, and the squashed tissue was stained with 0.1 μg/ml 4′,6-diamidino-2-phenylindole (DAPI). At least three high quality spreads were counted before assigning a karyotype."}, "[6]": {"system": "Mouse sperm", "conditions": "AMT+UV-treated sperm", "procedure": "as §3, §2"}, "[7]": {"system": "Mouse J2 3T3 fibroblasts", "conditions": "5 μM AMT and UV light 2 minutes", "procedure": "as §1\nThe human keratinocyte precursor cell line CIN612 is widely used in studies of human papillomavirus (HPV) (Ozbun, 2002). CIN612 cells harbor episomal copies of HPV31b, a subtype that causes cervical cancer. The cells are typically grown on a feeder layer of mouse fibroblasts. Mouse J2 3T3 fibroblasts were treated with 5 μM AMT and UV light for 2 minutes, then trypsinized and plated with CIN612 cells."}, "[8]": {"conditions": "5 μM MOP, long wave UV 1 minute, cultured three days"}, "[9]": {"conditions": "pigmented male sperm treated with AMT and UV, eggs from albino female"}}, "note": "Where “and” joins values, the source holds several entries; their conditions need not be identical. Identical values can stand only once.", "data": [{"smiles": "COc1c2occc2cc2ccc(=O)oc12", "note": "[MOP, 8-methoxypsoralen]", "values": [{"measurement": "Chromosome Number (Mean ± SD)", "setting": "[1]; karyotype analysis", "result": "18.0 ± 0.0"}, {"measurement": "Cell viability", "setting": "[2]; [8]", "result": "80-100%"}, {"measurement": "HeLa cell growth", "setting": "[2]; [8]", "result": "effectively arrested HeLa cell growth"}, {"measurement": "Chk1 phosphorylation, MOP without UV exposure", "setting": "[2]; MOP without UV", "result": "little or no Chk1 phosphorylation"}, {"measurement": "Growth of cells incubated in MOP without UV exposure", "setting": "[2]; MOP without UV", "result": "grew normally"}, {"measurement": "S345-phosphorylated Chk1", "setting": "[2]; MOP+UV-arrested cells, immunoblotting", "result": "high levels"}, {"measurement": "Cell cycle distribution (flow cytometry)", "setting": "[2]; MOP+UV-treated cells", "result": "arrested in S and G2/M phases of the cell cycle"}, {"measurement": "Proliferation in culture", "setting": "[2]; MOP+UV-treated, untreated doubling time close to 24 hours", "result": "did not proliferate"}]}, {"smiles": "Cc1oc2c(C)c3oc(=O)cc(C)c3cc2c1CN", "note": "[AMT, 4′-aminomethyl-4, 5′, 8-trimethylpsoralen]", "values": [{"measurement": "Comparison of colonies with those on gamma-irradiated MEFs", "setting": "[3]; 5 μM AMT, long-wave UV 30 seconds", "result": "indistinguishable from those grown on gamma-irradiated MEFs"}, {"measurement": "Appearance of hESC colonies on treated MEFs", "setting": "[3]; 5 μM AMT, long-wave UV 30 seconds, H7/WA07 hESCs after 5 days", "result": "healthy-appearing hESC colonies with smooth rounded borders"}, {"measurement": "Time after treatment within which plating maintains hESCs undifferentiated", "setting": "[3]; AMT+UV-treated MEFs, noticeable decrease after 8 days", "result": "≤ 6", "unit": "days"}, {"measurement": "Oct3/4 expression of hESCs", "setting": "[3]; on AMT+UV-treated MEFs", "result": "normal amounts"}, {"measurement": "Development of parthenogenetically activated eggs", "setting": "[4]; 4-6 μM AMT, 30 seconds handheld 4W UV lamp", "result": "arrested development at the 1-2 cell stage"}, {"measurement": "Development of eggs treated with AMT only", "setting": "[4]; AMT without UV", "result": "formed complete blastocysts"}, {"measurement": "Average efficiency of enucleation", "setting": "[1]; 20 different clutches of eggs from different mothers", "result": "87±11", "unit": "%"}, {"measurement": "Embryo development, AMT-only treated eggs", "setting": "[1]; AMT without UV", "result": "normal diploid embryos"}, {"measurement": "DNA content of somatic cells versus cells from untreated eggs", "setting": "[1]; AMT+UV-treated eggs, primary cultures from pools of 20 tadpoles, flow cytometry", "result": "exactly half"}, {"measurement": "Rates of fertilization and development into haploid tadpoles", "setting": "[1]; after psoralen+UV treatment of eggs", "result": "80-100%"}, {"measurement": "Appearance of tadpoles", "setting": "[1]; eggs in 50 μM AMT 5 min, irradiated 5 min, 100 W UV 300-400 nm, then fertilized", "result": "typical haploid appearance"}, {"measurement": "Outcome with shorter irradiation or lower concentrations", "setting": "[1]; eggs irradiated for shorter periods or with lower concentrations of AMT", "result": "abnormal embryos"}, {"measurement": "Haploid embryos expressing GFP", "setting": "[1]; eggs of CMV-GFP(+) female treated with AMT and UV, fertilized with GFP(−) sperm, untreated 63%", "result": "virtually none"}, {"measurement": "Chromosome Number (Mean ± SD)", "setting": "[1]; karyotype analysis", "result": "18 and 18.0 ± 0.0"}, {"measurement": "Concentration providing ideal enucleation conditions", "setting": "[1]; irradiation of eggs for 2-5 minutes", "result": "25 to 50", "unit": "µM"}, {"measurement": "Chromosome number of most surviving abnormal embryos", "setting": "[1]; shorter irradiation or lower AMT concentrations, karyotype analysis", "result": "32-34"}, {"measurement": "Embryo outcome when both sperm and egg were treated", "setting": "[5]; both sperm and egg AMT+UV-treated", "result": "underwent several irregular cleavage divisions before dying during the blastula stage"}, {"measurement": "Chromosome Number (Mean ± SD)", "setting": "[5]; embryos from eggs fertilized with AMT + UV-treated sperm, karyotype analysis", "result": "18 and 18.0 ± 0.0"}, {"measurement": "Appearance of tadpoles", "setting": "[5]; [9]", "result": "typical haploid appearance"}, {"measurement": "Pigmentation of tadpoles", "setting": "[5]; [9]", "result": "all were albino"}, {"measurement": "Effect on efficiency of fertilization", "setting": "[5]; sperm treated with AMT and UV light", "result": "no effect"}, {"measurement": "Efficiency of enucleation", "setting": "[5]; sperm, AMT + UV", "result": "95±3", "unit": "%"}, {"measurement": "Psoralen concentration sufficient to completely destroy the nucleus", "setting": "[5]; sperm, with UV irradiation", "result": 1, "unit": "µM"}, {"measurement": "Embryo outcome, AMT without UV exposure", "setting": "[5]; unless fertilization performed in a darkroom under a safelight", "result": "sometimes gave rise to abnormal embryos"}, {"measurement": "Cleavage of fertilized zygotes", "setting": "[6]; 20-40% with untreated sperm reached blastocyst", "result": "rarely cleaved even once"}, {"measurement": "Fertilization of mouse eggs in vitro by treated sperm", "setting": "[6]; two pronuclei", "result": "successfully fertilized mouse eggs in vitro"}, {"measurement": "Growth rate of CIN612 cells on psoralen-treated feeders", "setting": "[7]", "result": "the same as on mitomycin-C treated feeders"}, {"measurement": "CIN612 colonies compared with mitomycin C-treated feeders", "setting": "[7]; 3-7 days in culture", "result": "indistinguishable from those grown on mitomycin C-treated feeder cells"}]}]}
